According to patent publication US8372967B2, “Compounds and methods for modulating expression of GCCR” (Isis Pharmaceuticals, Inc., priority 2006, dated 2013):
Strand notation (5' to 3'): a small letter for the sugar, then the base; units joined by * are phosphorothioate-linked, units joined directly phosphodiester-linked; [ ] holds rarer units or linkages, { } end groups; capitals alone tell only the bases. e = 2'-O-(2-methoxyethyl) (MOE); [5mC] = 5-methylcytosine; d = 2'-deoxy (DNA)

Key:
Format in all cases: in vivo, mouse
SGLT2 mRNA = SGLT2 mRNA in kidney of Balb/c mice, twenty 1-10-1 MOE gapmers, PPS 534 and PPS 553 (Table 74); details: i.p. 350 nmol/kg twice per week for two weeks
Experimental: Twenty 1-10-1 MOE gapmers that are complementary to human/monkey/mouse/rat SGLT2 were designed, synthesized and tested in vivo for suppression of SGLT2 mRNA levels in kidney. Data are averages from two experiments in which male 6-week old Balb/c mice were administered intraperitoneal injections of 350 nmol/kg of oligonucleotide, twice per week, over a period of two weeks (a total of four injections). Mice were sacrificed 48 hours following the last administration and evaluated for SGLT2 mRNA levels in kidney. SGLT2 mRNA levels were determined by quantitative real-time PCR analysis according to standard procedures, using two different PCR primer probe sets, primer probe set (PPS) 534 and PPS 553. SGLT2 mRNA levels were normalized to cyclophilin mRNA levels, which were also measured by quantitative real-time PCR.

GCGR mRNA = GCGR mRNA levels in liver, C57/BL6 mice, single i.p. dose (Tables 35-41); details: for GCGR mRNA levels: Table 35 comparison ISIS 148364 & ISIS 386626
Experimental: Prior to quantitative PCR analysis, primer-probe sets specific to the target gene being measured were evaluated for their ability to be “multiplexed” with a GAPDH amplification reaction. After isolation the RNA is subjected to sequential reverse transcriptase (RT) reaction and real-time PCR, both of which are performed in the same well. RT and PCR reagents were obtained from Invitrogen Life Technologies (Carlsbad, Calif.). […] The RT reaction was carried out by incubation for 30 minutes at 48° C. Following a 10 minute incubation at 95° C. to activate the PLATIN 9M® Taq, 40 cycles of a two-step PCR protocol were carried out: 95° C. for 15 seconds (denaturation) followed by 60° C. for 1.5 minutes (annealing/extension).
170 μL of RiboGreen® working reagent (RiboGreen® reagent diluted 1:350 in 10 mM Tris-HCl, 1 mM EDTA, pH 7.5) was pipetted into a 96-well plate containing 30 μL purified cellular RNA. The plate was read in a CytoFluor® 4000 (PE Applied Biosystems) with excitation at 485 nm and emission at 530 nm.
(§1) Eight-week old male C57/BL6 mice (Jackson Laboratory, Bar Harbor, Me.) were administered a single dose of GCGR oligonucleotide by intraperitoneal injection at a concentration of […]. Each dose group consisted of four animals. Shown in Table 31 are the sequences, motifs and conjugates of the GCGR antisense compounds used in this study. Bolded residues indicate 2′-O-methoxyethyl (2′-MOE) moieties. All compounds comprise phosphorothioate internucleoside linkages throughout and each cytosine is replaced with 5-methylcytosine. ISIS 386626, ISIS 386627 and ISIS 386628 further comprise a C16 conjugate group attached to the 2′-O position of the sugar via a diamide linkage (2′-OCH2C(═O)N(H)(CH2)4N(H)C(═O)—(CH2)15CH3). GCGR antisense compounds target published GCGR sequences, including Genbank® Accession No. BC031885.1 (SEQ ID NO: 7).
(§2) Mice were sacrificed 48 hours following injection to determine serum transaminase levels (Table 32); liver, white adipose tissue (WAT), spleen and kidney weight (Table 33); cholesterol, triglyceride and glucose levels (Table 34); GCGR mRNA levels (Tables 35-41); and full-length and total oligonucleotide concentration in liver and kidney (Table 42). Endpoints were assessed using methods described herein and well known to those of ordinary skill in the art. Data is included from a pre-treatment bleed (Pre-Bleed) and post-treatment bleed (Post-Bleed).
To determine whether the phenotypic changes shown above correlated with a decrease in GCGR mRNA, treated animals were evaluated for levels of target mRNA in liver by real time PCR according to methods described herein. Tables 35 to 41 show results from direct comparisons of the antisense compounds targeting GCGR nucleic acid for their effect on target expression. Results are expressed as percent of saline control.

[1] = ALT & AST levels and toxic effects, GCGR study (Table 32); details: C57/BL6 mice, pre-treatment bleed
Experimental: as §1, §2

[2] = Organ weights: liver, WAT, spleen, kidney, GCGR study (Table 33); details: 48 h
Experimental: as §1, §2

[3] = Triglyceride, cholesterol and glucose levels, pre-bleed and post-bleed, GCGR study (Table 34); design: Triglyceride (TRIG) Pre-Bleed / Triglyceride (TRIG) Post-Bleed / Cholesterol (CHOL) Pre-Bleed / Cholesterol (CHOL) Post-Bleed / Glucose Pre-Bleed / Glucose Post-Bleed: unit not given here; details: for Cholesterol (CHOL) Pre-Bleed / Triglyceride (TRIG) Pre-Bleed: pre-treatment bleed; for Cholesterol (CHOL) Post-Bleed / Triglyceride (TRIG) Post-Bleed: post-treatment bleed
Experimental: as §1, §2

[4] = primer probe set 534, normalized to cyclophilin
[5] = primer probe set 553, normalized to cyclophilin

379692 (antisense eT*dG*dT*dT*d[5mC]*d[5mC]*dA*dG*d[5mC]*d[5mC]*d[5mC]*eA) [compound 379692]
% change in SGLT2 mRNA vs saline (SGLT2 mRNA; [4]): −88.1 % Saline | % change in SGLT2 mRNA vs saline (SGLT2 mRNA; [5]): −88.5 % Saline

379693 (antisense e[5mC]*dA*dT*dG*dG*dT*dG*dA*dT*dG*d[5mC]*e[5mC]) [compound 379693]
% change in SGLT2 mRNA vs saline (SGLT2 mRNA; [4]): −51.6 % Saline | % change in SGLT2 mRNA vs saline (SGLT2 mRNA; [5]): −59.9 % Saline

379694 (antisense eG*dA*d[5mC]*dG*dA*dA*dG*dG*dT*d[5mC]*dT*eG) [compound 379694]
% change in SGLT2 mRNA vs saline (SGLT2 mRNA; [4]): −42.1 % Saline | % change in SGLT2 mRNA vs saline (SGLT2 mRNA; [5]): −54.4 % Saline

379695 (antisense eG*dG*dA*d[5mC]*dA*d[5mC]*d[5mC]*dG*dT*d[5mC]*dA*eG) [compound 379695]
% change in SGLT2 mRNA vs saline (SGLT2 mRNA; [4]): −52.5 % Saline | % change in SGLT2 mRNA vs saline (SGLT2 mRNA; [5]): −64.1 % Saline

379696 (e[5mC]*dA*dG*d[5mC]*dT*dT*d[5mC]*dA*dG*dG*dT*eA; antisense) [compound 379696]
% change in SGLT2 mRNA vs saline (SGLT2 mRNA; [4]): −24.6 % Saline | % change in SGLT2 mRNA vs saline (SGLT2 mRNA; [5]): −36.2 % Saline

379697 (e[5mC]*dT*dG*dG*d[5mC]*dA*dT*dG*dA*d[5mC]*d[5mC]*eA; antisense) [compound 379697]
% change in SGLT2 mRNA vs saline (SGLT2 mRNA; [4]): −32.0 % Saline | % change in SGLT2 mRNA vs saline (SGLT2 mRNA; [5]): −46.3 % Saline

379698 (eG*d[5mC]*dA*dG*d[5mC]*d[5mC]*d[5mC]*dA*d[5mC]*d[5mC]*dT*e[5mC]) [compound 379698]
% change in SGLT2 mRNA vs saline (SGLT2 mRNA; [4]): −11.8 % Saline | % change in SGLT2 mRNA vs saline (SGLT2 mRNA; [5]): −27.0 % Saline

379699 (eG*dG*d[5mC]*dA*dT*dG*dA*dG*d[5mC]*dT*dT*e[5mC]) [compound 379699]
% change in SGLT2 mRNA vs saline (SGLT2 mRNA; [4]): −83.5 % Saline | % change in SGLT2 mRNA vs saline (SGLT2 mRNA; [5]): −85.8 % Saline

379700 (e[5mC]*d[5mC]*dA*dG*d[5mC]*dA*dT*dG*dA*dG*dT*e[5mC]; antisense) [compound 379700]
% change in SGLT2 mRNA vs saline (SGLT2 mRNA; [4]): −2.8 % Saline | % change in SGLT2 mRNA vs saline (SGLT2 mRNA; [5]): −16.4 % Saline

379701 (e[5mC]*d[5mC]*dA*dT*dG*dG*dT*dG*dA*dA*dG*eA) [compound 379701]
% change in SGLT2 mRNA vs saline (SGLT2 mRNA; [4]): −0.3 % Saline | % change in SGLT2 mRNA vs saline (SGLT2 mRNA; [5]): −11.9 % Saline

379702 (eG*d[5mC]*dA*d[5mC]*dA*d[5mC]*dA*dG*d[5mC]*dT*dG*e[5mC]) [compound 379702]
% change in SGLT2 mRNA vs saline (SGLT2 mRNA; [4]): −87.8 % Saline | % change in SGLT2 mRNA vs saline (SGLT2 mRNA; [5]): −89.5 % Saline

379703 (eG*d[5mC]*d[5mC]*dG*dG*dA*dG*dA*d[5mC]*dT*dG*eA; antisense) [compound 379703]
% change in SGLT2 mRNA vs saline (SGLT2 mRNA; [4]): −44.2 % Saline | % change in SGLT2 mRNA vs saline (SGLT2 mRNA; [5]): −45.9 % Saline

386626 (antisense GCTTCTCCATCATA; chemistry not fully specified) [compound 386626]
GCGR mRNA levels (GCGR mRNA; 6.25 mg/kg): 7% of saline control | GCGR mRNA levels (GCGR mRNA; 12.5 mg/kg): 3% of saline control | GCGR mRNA levels (GCGR mRNA; 25 mg/kg): 8% of saline control | GCGR mRNA levels (GCGR mRNA; 50 mg/kg): 0% of saline control | ALT Pre-Bleed ([1]; dose group 6.25 mg/kg): 26 IU/L | AST Pre-Bleed ([1]; dose group 6.25 mg/kg): 46 IU/L | ALT Pre-Bleed ([1]; dose group 12.5 mg/kg): 28 IU/L | AST Pre-Bleed ([1]; dose group 12.5 mg/kg): 44 IU/L | ALT Pre-Bleed ([1]; dose group 25 mg/kg): 30 IU/L | AST Pre-Bleed ([1]; dose group 25 mg/kg): 44 IU/L | ALT Pre-Bleed ([1]; dose group 50 mg/kg): 28 IU/L | AST Pre-Bleed ([1]; dose group 50 mg/kg): 48 IU/L | Organ Weights: Kidney ([2]; 6.25 mg/kg single i.p.): 100 % saline control | Organ Weights: Liver ([2]; 6.25 mg/kg single i.p.): 100 % saline control | Organ Weights: Spleen ([2]; 6.25 mg/kg single i.p.): 95 % saline control | Organ Weights: WAT ([2]; 6.25 mg/kg single i.p.): 90 % saline control | Organ Weights: Kidney ([2]; 12.5 mg/kg single i.p.): 97 % saline control | Organ Weights: Liver ([2]; 12.5 mg/kg single i.p.): 96 % saline control | Organ Weights: Spleen ([2]; 12.5 mg/kg single i.p.): 114 % saline control | Organ Weights: WAT ([2]; 12.5 mg/kg single i.p.): 73 % saline control | Organ Weights: Kidney ([2]; 25 mg/kg single i.p.): 103 % saline control | Organ Weights: Liver ([2]; 25 mg/kg single i.p.): 109 % saline control | Organ Weights: Spleen ([2]; 25 mg/kg single i.p.): 120 % saline control | Organ Weights: WAT ([2]; 25 mg/kg single i.p.): 97 % saline control | Organ Weights: Kidney ([2]; 50 mg/kg single i.p.): 104 % saline control | Organ Weights: Liver ([2]; 50 mg/kg single i.p.): 112 % saline control | Organ Weights: Spleen ([2]; 50 mg/kg single i.p.): 130 % saline control | Organ Weights: WAT ([2]; 50 mg/kg single i.p.): 77 % saline control | Cholesterol (CHOL) Pre-Bleed ([3]; 6.25 mg/kg group): 85 | Triglyceride (TRIG) Pre-Bleed ([3]; 6.25 mg/kg group): 86 | Cholesterol (CHOL) Post-Bleed ([3]; 6.25 mg/kg single i.p.): 90 | Triglyceride (TRIG) Post-Bleed ([3]; 6.25 mg/kg single i.p.): 162 | Cholesterol (CHOL) Pre-Bleed ([3]; 12.5 mg/kg group): 82 | Triglyceride (TRIG) Pre-Bleed ([3]; 12.5 mg/kg group): 100 | Cholesterol (CHOL) Post-Bleed ([3]; 12.5 mg/kg single i.p.): 76 | Triglyceride (TRIG) Post-Bleed ([3]; 12.5 mg/kg single i.p.): 148 | Cholesterol (CHOL) Pre-Bleed ([3]; 25 mg/kg group): 87 | Triglyceride (TRIG) Pre-Bleed ([3]; 25 mg/kg group): 100 | Cholesterol (CHOL) Post-Bleed ([3]; 25 mg/kg single i.p.): 72 | Triglyceride (TRIG) Post-Bleed ([3]; 25 mg/kg single i.p.): 187 | Cholesterol (CHOL) Pre-Bleed ([3]; 50 mg/kg group): 79 | Triglyceride (TRIG) Pre-Bleed ([3]; 50 mg/kg group): 87 | Cholesterol (CHOL) Post-Bleed ([3]; 50 mg/kg single i.p.): 57 | Triglyceride (TRIG) Post-Bleed ([3]; 50 mg/kg single i.p.): 163

ISIS 386626: GCGR short antisense compound with C16 conjugate group at 2′-O via diamide linkage (GCTTCTCCATCATA; chemistry not fully specified)
GCGR mRNA expression (GCGR mRNA; single i.p. dose 6.25, 12.5, 25 or 50 mg): greatest decrease in target mRNA | Glucose levels (post-bleed) ([3]; C57/BL6 mice, 48 hours after single i.p. dose): decreased in a dose-dependent manner
